{
  "source": "patent US20210346354A1",
  "about": "“MACROPINOCYTOSIS IN CANCER” (Memorial Sloan-Kettering Cancer Center, priority 2015, published 2021)",
  "key": {"K-Ras^G12D MEFs [1]": {"system": "K-Ras^G12D MEFs", "assay": "Proliferation assay (cell numbers) of K-Ras^G12D MEFs in starvation medium", "type": "cell-based, mouse", "procedure": "(§1) Cell culture experiments were performed at 37° C. and 5% CO2 in DMEM/F12 with 10% dialyzed FBS (molecular weight cut-off 10,000; Gemini Biosystems), 100 U/mL penicillin, 100 μg/mL streptomycin, 5 mM glucose and 2 mM glutamine. For proliferation assays, MEFs were plated in complete medium, 5 h later briefly rinsed and then cultured in starvation medium as indicated. For EAA titration experiments, EAAs were supplemented at indicated percentages of 1×MEM amino acid solution (M5550, Sigma). Cancer cell lines were cultured in complete medium for 1 day prior to starvation. Numbers of adherent cells, which are >95% viable as assessed by Trypan Blue exclusion were determined using a Multisizer 4 Coulter Counter (Beckman). For mTOR activation and localization experiments, cells were rinsed and then incubated in EAA starvation medium (DMEM/F12 lacking all amino acids except glutamine) for 1 h, and subsequently placed in medium supplemented with EAAs (1×MEM amino acid solution), albumin (3%, if not stated otherwise) or fresh EAA-free starvation medium for indicated periods of time."}, "mTORC1": {"system": "mTORC1", "assay": "mTORC1 re-activation after 1 h EAA starvation, Western blotting against phosphorylated S6K1", "type": "cell-based, mouse", "details": "for albumin-dependent mTORC1 activation: 3% albumin", "procedure": "Cells were rinsed with ice-cold PBS and detached from culture plates by incubation with ice-cold trypsin (0.05%). Trypsin was inactivated with ice-cold serum, cells pelleted and rinsed with ice cold PBS. Cells were lysed in ice-cold lysis buffer [50 mM HEPES, pH 7.4, 40 mM […], 2 mM EDTA, 1 mM Na Orthovandanate, 50 mM NaF, 10 mM Na Pyrophosphate, 10 mM Na Glycerophosphate, 1% Triton X-100, 1×Halt protease and phosphatase inhibitor cocktails (Thermo Scientific)] for 15 min, and soluble lysate fractions isolated by centrifugation at 16,000 g for 10 min. Protein concentrations were determined with the Pierce BCA Protein Assay (Thermo Scientific) and equal amounts of proteins analyzed by SDS gel electrophoresis and Western blotting following standard protocols.\nas §1\nCells can sense EAAs through the mTORC1 pathway, which integrates amino acid levels with inputs from growth factor signaling to promote cell growth (Ma and Blenis, 2009; Shimobayashi and Hall, 2014). When cells are placed in EAA-free medium, the ability of mTORC1 to phosphorylate downstream targets is repressed. To test if catabolism of extracellularly provided proteins could restore mTORC1 activity in the absence of EAAs, mTORC1 was inactivated by subjecting MEFs to 1 h EAA starvation. Fresh medium containing EAAs or different concentrations of albumin was then added and mTORC1 re-activation assessed by Western blotting against phosphorylated S6K1."}, "K-Ras^G12D MEFs [2]": {"system": "K-Ras^G12D MEFs", "assay": "Lysosomal degradation of DQ-BSA (fluorescence dequenching) in K-Ras^G12D MEFs", "type": "cell-based, mouse", "details": "for torin 1-induced increase in DQ-BSA fluorescence when transcription is blocked: 5 μg/ml actinomycin D or 1 μM triptolide, 30 min pre-treatment, 6 h DQ-BSA", "procedure": "For live imaging, medium was supplemented with 0.3 mg/ml DQ Green BSA. 1 h prior to imaging, 50 nM LysoTracker Red and 0.2 μg/ml Hoechst were added. Cells were imaged either immediately after addition of DQ-BSA and torin 1, or after 5-6 h incubation using a Zeiss LSM 5 LIVE.\nTo characterize how cells derive leucine from extracellular proteins, cellular albumin uptake was investigated using constitutively fluorescent albumin and intracellular albumin proteolysis using a self-quenched albumin that emits fluorescence upon degradation (DQ-BSA) (Reis et al., 1998). […] It was then determined whether lysosomal albumin degradation was required to support growth during leucine starvation. […] Ras GTPases can promote cellular uptake of macromolecules through macropinocytosis (Bar-Sagi and Feramisco, 1986). […] To investigate whether this endocytic pathway contributed to albumin-dependent growth, cells were treated with the Na^+/H^+ exchange inhibitor EIPA, which blocks macropinocytosis but not other endocytic pathways (West et al., 1989).\nTo distinguish these possibilities, it was first tested whether mTORC1 inhibition increased internalization of extracellular macromolecules. […] It was next examined whether mTORC1 inhibition affected lysosomal degradation of internalized proteins."}, "mTOR": {"system": "mTOR", "assay": "Lysosomal recruitment of mTOR, immunofluorescence against mTOR and LAMP2", "type": "cell-based, mouse", "details": "K-Ras^G12D MEFs", "procedure": "For immunostainings, cells were rinsed with ice-cold PBS, fixed with 4% formaldehyde in PBS for 15 min and permeabilized with 0.05% Triton X-100 in PBS. After rinsing with PBS, cells were blocked with PBG (0.5% BSA, 0.2% cold water fish gelatin in PBS) for 30 min, incubated with primary antibodies in PBG for 1.5 h, washed two times with PBG+4% normal goat serum and then incubated with secondary antibodies in PBG+4% NGS for 45 min. After three washes with PBS, cells were mounted on microscope slides with Prolong Antifade+DAPI and imaged using a Leica TCS SP5-II.\nas §1, with “For mTOR activation and localization experiments, cells were rinsed and then incubated in EAA starvation medium (DMEM/F12 lacking all amino acids except glutamine) for 1 h, and subsequently placed in medium supplemented with EAAs (1×MEM amino acid solution), albumin (3%, if not stated otherwise) or fresh EAA-free starvation medium for indicated periods of time.” left out"}, "[3]": {"details": "background statement; cited from earlier work"}, "wild type MEFs": {"system": "wild type MEFs", "assay": "Proliferation assay (cell numbers) of wild type MEFs in starvation medium", "type": "cell-based, mouse", "procedure": "as §1"}, "[4]": {"system": "wild type and heterozygous K-Ras^G12D MEFs", "assay": "Cell numbers of wild type and K-Ras^G12D MEFs in medium lacking nutrients ±3% albumin", "type": "cell-based, mouse", "details": "for cell viability: 3% albumin supplementation", "procedure": "The dashed line indicates starting cell numbers. # below detection limit. *p<0.05, ** p<0.01, ***p<0.001. […] Data are represented as mean±STDEV (n=3).\nas §1\nTo investigate whether activation of K-Ras signaling altered a cell's ability to metabolize extracellular proteins, we compared immortalized mouse embryonic fibroblasts (MEFs) harboring wild type K-Ras or a constitutively active K-Ras^G12D allele. Albumin is the major protein in plasma and interstitial fluids, its levels ranging from 2-5%. To mimic the protein-rich composition of extracellular fluids, culture medium was therefore supplemented with 10% dialyzed fetal bovine serum ±3% albumin."}, "[5]": {"details": "K-Ras^G12D MEFs, inhibitor added at onset of starvation"}, "[6]": {"details": "EAAs at 5% of the levels in complete medium, 3% albumin"}, "[7]": {"details": "3% albumin after 1 h EAA starvation"}},
  "note": "Numbered stars: 1 amine (or outer) side, 2 acyl side, 3 side chain; on linkers, the order of the positions; unused ones are H or OH. Bridge positions count the residues as written; N and C are the ends. Square brackets hold non-standard residues; d marks the D form. Peptide text beside a SMILES is read from it. I, II: the chains in the order shown. Actinocin(9to1) = Cc1c2oc3c(C)ccc(C(=O)[*:1])c3nc-2c(C(=O)[*:2])c(N)c1=O; NMeV = CN[C@H](C(=O)O)C(C)C; Sar = CNCC(=O)O",
  "data": [
    {"compound": "CCN(c1nc(N)c(C(=O)NC(=N)N)nc1Cl)C(C)C", "note": "[EIPA]", "values": [
      {"measurement": "cell proliferation", "setting": "K-Ras^G12D MEFs [1]; EIPA treatment with free leucine added to culture medium", "value": "restored"},
      {"measurement": "cell proliferation", "setting": "K-Ras^G12D MEFs [1]; leucine-free medium +3% albumin, 25 μM EIPA, day 3", "value": "strongly decreased"},
      {"measurement": "albumin-dependent mTORC1 activation", "setting": "mTORC1; [5]", "value": "strongly reduced"}
    ]},
    {"compound": "Oc1ccc2ccccc2c1SSc1c(O)ccc2ccccc12", "note": "[IPA-3]", "values": [
      {"measurement": "albumin-dependent mTORC1 activation", "setting": "mTORC1; [5]", "value": "strongly reduced"}
    ]},
    {"compound": "Cc1c2oc3c(C)ccc(C(=O)N[C@@H]4C(=O)N[C@H](C(C)C)C(=O)N5CCC[C@H]5C(=O)N(C)CC(=O)N(C)[C@@H](C(C)C)C(=O)O[C@@H]4C)c3nc-2c(C(=O)N[C@@H]2C(=O)N[C@H](C(C)C)C(=O)N3CCC[C@H]3C(=O)N(C)CC(=O)N(C)[C@@H](C(C)C)C(=O)O[C@@H]2C)c(N)c1=O", "note": "[actinomycin D] (I: T[dV]P[Sar][NMeV] / II: T[dV]P[Sar][NMeV]; ester I:1-I:C, II:1-II:C; linker I:N-II:N via Actinocin(9to1))", "values": [
      {"measurement": "torin 1-induced increase in DQ-BSA fluorescence when transcription is blocked", "setting": "K-Ras^G12D MEFs [2]", "value": "unaffected"}
    ]},
    {"compound": "CO/C1=C\\C(C)=C\\[C@@H](C)[C@@H](O)[C@@H](C)C/C(C)=C/C=C/[C@H](OC)[C@@H]([C@@H](C)[C@@H](O)[C@H](C)[C@@]2(O)C[C@@H](O)[C@H](C)[C@@H](C(C)C)O2)OC1=O", "note": "[bafilomycin A1]", "values": [
      {"measurement": "albumin-dependent mTORC1 activation", "setting": "mTORC1; [5]", "value": "strongly suppressed"},
      {"measurement": "mTORC1 activation by EAAs", "setting": "mTORC1; [5]", "value": "did not perturb"},
      {"measurement": "movement of mTOR to lysosomal membranes in response to albumin", "setting": "mTOR; 200 nM bafilomycin A1 added at onset of EAA starvation", "value": "completely blocked"}
    ]},
    {"compound": "CCN(CC)CCCC(C)Nc1ccnc2cc(Cl)ccc12", "note": "(centres unmarked) [chloroquine]", "values": [
      {"measurement": "DQ-BSA degradation in torin 1-treated cells", "setting": "K-Ras^G12D MEFs [2]; 250 nM torin 1 plus 20 μM chloroquine or protease inhibitors, 6 h", "value": "abrogated DQ-BSA degradation"}
    ]},
    {"compound": "C=C1[C@@H](C)[C@H]2[C@H](Cc3ccccc3)NC(=O)[C@]23[C@H](OC(C)=O)/C=C/[C@@](C)(O)C(=O)[C@@H](C)C/C=C/[C@H]3[C@@H]1O", "note": "[cytochalasin D]", "values": [
      {"measurement": "albumin-dependent mTORC1 activation", "setting": "mTORC1; [5]", "value": "strongly reduced"}
    ]},
    {"compound": "C/C1=C\\[C@H](C)C[C@H](C)OC(=O)C[C@H](c2ccc(O)cc2)NC(=O)[C@@H](Cc2c(Br)[nH]c3ccccc23)N(C)C(=O)[C@H](C)NC(=O)[C@@H](C)C1", "note": "[jasplakinolide]", "values": [
      {"measurement": "albumin-dependent mTORC1 activation", "setting": "mTORC1; [5]", "value": "strongly reduced"}
    ]},
    {"compound": "CO[C@H]1C[C@@H]2CC[C@@H](C)[C@@](O)(O2)C(=O)C(=O)N2CCCC[C@H]2C(=O)O[C@H]([C@H](C)C[C@@H]2CC[C@@H](O)[C@H](OC)C2)CC(=O)[C@H](C)/C=C(\\C)[C@@H](O)[C@@H](OC)C(=O)[C@H](C)C[C@H](C)/C=C/C=C/C=C/1C", "note": "[rapamycin]", "values": [
      {"measurement": "stability", "setting": "[3]", "value": "not very stable"}
    ]},
    {"compound": "CC(C)[C@]12O[C@H]1[C@@H]1O[C@]13[C@]1(O[C@H]1C[C@H]1C4=C(CC[C@@]13C)C(=O)OC4)[C@@H]2O", "note": "[triptolide]", "values": [
      {"measurement": "torin 1-induced increase in DQ-BSA fluorescence when transcription is blocked", "setting": "K-Ras^G12D MEFs [2]", "value": "unaffected"}
    ]},
    {"compound": "albumin: bovine serum albumin (A1470, Sigma) added to medium as extracellular protein nutrient", "values": [
      {"measurement": "cell proliferation", "setting": "K-Ras^G12D MEFs [1]; [6]", "value": "significant increase in proliferation"},
      {"measurement": "cell proliferation", "setting": "K-Ras^G12D MEFs [1]; leucine-free medium containing 3% albumin, several consecutive days", "value": "able to sustain proliferation"},
      {"measurement": "albumin concentration at which proliferation could be sustained", "setting": "K-Ras^G12D MEFs [1]; low-EAA medium (5% EAAs)", "value": "at least 1%"},
      {"measurement": "proliferation rate", "setting": "K-Ras^G12D MEFs [1]; low-EAA medium, albumin concentration raised to 3%", "value": "increased progressively"},
      {"measurement": "cell numbers", "setting": "K-Ras^G12D MEFs [1]; medium lacking glutamine, 3% albumin supplementation", "value": "increase in cell numbers, albeit to a minor extent"},
      {"measurement": "cell viability", "setting": "K-Ras^G12D MEFs [1]; medium lacking isoleucine, lysine, or arginine, physiological levels of albumin (3%)", "value": "rescued cell viability"},
      {"measurement": "survival and proliferation", "setting": "wild type MEFs; [6]", "value": "improved survival of wild type MEFs, but did not support their proliferation"},
      {"measurement": "cell viability", "setting": "wild type MEFs; low-EAA medium, increasing albumin levels (1-3%)", "value": "improved viability"},
      {"measurement": "time after which mTORC1-dependent phosphorylation resumed", "setting": "mTORC1; [7]", "value": 2, "unit": "h"},
      {"measurement": "time to maximal levels of mTORC1-dependent phosphorylation", "setting": "mTORC1; [7]", "value": 4, "unit": "h"},
      {"measurement": "S6K1 phosphorylation", "setting": "mTORC1; wild type and K-Ras^G12D MEFs, EAA-free medium with 1-3% albumin", "value": "concentration-dependent increase in S6K1 phosphorylation"},
      {"measurement": "subcellular localization of mTOR", "setting": "mTOR; 1 h EAA starvation, then 3% albumin", "value": "localized to punctate structures that were marked by the lysosomal membrane protein LAMP2"},
      {"measurement": "cell proliferation", "setting": "[4]; glucose-free medium ±3% albumin", "value": "ceased to proliferate, regardless of the presence of 3% albumin"},
      {"measurement": "cell survival", "setting": "[4]; medium lacking all essential amino acids (EAAs), 3% albumin", "value": "striking rescue of cell survival"},
      {"measurement": "cell viability", "setting": "[4]; non-essential amino acid (NEAA) starvation", "value": "modestly improved viability"},
      {"measurement": "cell viability", "setting": "[4]; starved for leucine", "value": "completely restored"}
    ]}
  ]
}
